The record followed here is patent publication US20230265116A1, “DEGRADATION OF (EGFR) BY CONJUGATION OF EGFR INHIBITORS WITH E3 LIGASE LIGAND AND METHODS OF USE” (BEIGENE, LTD., priority 2020, published 2023).

Holding throughout (format): cell-based
Assay [1] deals with T1, EGFR L858R/T790M/C797S (BaF3-LTC cells) (Homo sapiens, UniProt P00533, C797S/L858R/T790M).
T1 construct: expressed in transfected cells; host or cells: BaF3
Nature of the assay: EGFR degradation HTRF assay, BaF3-LTC cells. As to conditions: BaF3-LTC cells; for DC50: EGFR degradation, IC50 (DC50) from curve fit, read-out: DC50(nM) BaF3-LTC; for Dmax: maximum percentage of inhibition (degradation), read-out: Dmax (%) BaF3-LTC. In outline:
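EGFR remaining after a 16 h, 37 °C exposure (8 doses, 5-fold steps from 10 uM final, 0.2% DMSO) was quantified by HTRF antibodies in cell lysate. Percent inhibition relative to DMSO control was fitted by four-parameter logistic to give DC50; Dmax denotes maximal degradation.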
In general terms: Time-resolved FRET reads energy transfer from a long-lived donor to a nearby acceptor.

Assay [2] concerns EGFR Del19/T790M/C797S (H1975-clone #28). Put plainly: EGFR degradation HTRF assay, H1975-clone #28 DTC cells. As to conditions: H1975 # 28 DTC cells; for DC50: EGFR degradation, IC50 (DC50) from curve fit, read-out: DC50(nM) H1975 # 28 DTC; for Dmax (%) H1975 # 28 DTC: maximum percentage of inhibition (degradation). The procedure, abridged: (§1)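 Read-out is an HTRF EGFR signal (337 nm excitation, 665/620 nm) from lysates of mutant-EGFR H1975 clones in which only the exogenous EGFR survives knockout. Treatment ran 16h at 37° C. from 10 uM final downward in 5-fold steps. DC50 comes from a logistic fit and Dmax is the maximal degradation.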

Assay [3] has as its system EGFR Del19/C797S (H1975-clone #23). Put plainly: EGFR degradation HTRF assay, H1975-clone #23 DC cells. As to conditions: 16h treatment; for H1975 #23 DC Dmax (%): maximum percentage of degradation; for DC50: H1975 #23 DC, read-out: H1975 #23 DC DC50. In outline: as §1
Assay [4] concerns the target T2, EGFR L858R/C797S (BaF3 LC cells) (Homo sapiens, UniProt P00533, C797S/L858R).
T2 construct: expressed in transfected cells; host or cells: BaF3
Put plainly: EGFR degradation HTRF assay, BaF3 LC cells. As to conditions: BaF3 LC, 16h treatment; for DC50: read-out: BaF3 LC DC50; for Dmax: maximum percentage of degradation, read-out: BaF3 LC Dmax (%).

Broadly, the DC50 is the concentration at which degradation of the target reaches its halfway point. The term Dmax denotes the greatest extent of degradation seen.

T2 sequence (P00533 25-1210 C797S/L858R): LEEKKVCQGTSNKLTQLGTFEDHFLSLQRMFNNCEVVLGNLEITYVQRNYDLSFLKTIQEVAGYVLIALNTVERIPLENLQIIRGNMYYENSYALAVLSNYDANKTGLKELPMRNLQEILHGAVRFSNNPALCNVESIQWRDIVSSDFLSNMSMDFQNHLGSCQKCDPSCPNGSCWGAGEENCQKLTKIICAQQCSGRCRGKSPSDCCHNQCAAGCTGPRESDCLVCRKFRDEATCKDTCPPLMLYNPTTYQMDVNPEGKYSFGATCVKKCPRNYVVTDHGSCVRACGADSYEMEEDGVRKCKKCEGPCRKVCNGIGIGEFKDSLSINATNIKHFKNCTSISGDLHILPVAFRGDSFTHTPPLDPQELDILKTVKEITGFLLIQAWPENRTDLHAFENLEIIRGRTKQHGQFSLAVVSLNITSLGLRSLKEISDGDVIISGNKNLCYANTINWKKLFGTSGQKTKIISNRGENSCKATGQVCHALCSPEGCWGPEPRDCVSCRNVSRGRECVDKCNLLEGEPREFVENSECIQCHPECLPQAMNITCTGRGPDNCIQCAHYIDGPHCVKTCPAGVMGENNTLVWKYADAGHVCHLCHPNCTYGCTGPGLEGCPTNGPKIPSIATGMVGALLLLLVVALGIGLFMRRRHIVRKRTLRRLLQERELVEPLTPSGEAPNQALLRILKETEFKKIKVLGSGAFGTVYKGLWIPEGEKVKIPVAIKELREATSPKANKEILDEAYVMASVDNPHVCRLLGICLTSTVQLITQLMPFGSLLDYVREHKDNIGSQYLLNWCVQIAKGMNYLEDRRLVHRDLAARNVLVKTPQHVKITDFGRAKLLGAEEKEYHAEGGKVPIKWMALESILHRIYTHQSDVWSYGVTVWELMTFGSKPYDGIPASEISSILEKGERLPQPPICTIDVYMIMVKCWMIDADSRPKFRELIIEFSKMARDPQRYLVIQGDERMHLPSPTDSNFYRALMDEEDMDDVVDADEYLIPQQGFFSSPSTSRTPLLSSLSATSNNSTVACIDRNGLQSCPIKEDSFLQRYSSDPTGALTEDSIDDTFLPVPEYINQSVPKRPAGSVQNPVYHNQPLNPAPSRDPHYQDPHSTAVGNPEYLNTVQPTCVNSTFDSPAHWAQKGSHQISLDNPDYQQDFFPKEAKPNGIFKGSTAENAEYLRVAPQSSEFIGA
T1 sequence (P00533 25-1210 T790M/C797S/L858R): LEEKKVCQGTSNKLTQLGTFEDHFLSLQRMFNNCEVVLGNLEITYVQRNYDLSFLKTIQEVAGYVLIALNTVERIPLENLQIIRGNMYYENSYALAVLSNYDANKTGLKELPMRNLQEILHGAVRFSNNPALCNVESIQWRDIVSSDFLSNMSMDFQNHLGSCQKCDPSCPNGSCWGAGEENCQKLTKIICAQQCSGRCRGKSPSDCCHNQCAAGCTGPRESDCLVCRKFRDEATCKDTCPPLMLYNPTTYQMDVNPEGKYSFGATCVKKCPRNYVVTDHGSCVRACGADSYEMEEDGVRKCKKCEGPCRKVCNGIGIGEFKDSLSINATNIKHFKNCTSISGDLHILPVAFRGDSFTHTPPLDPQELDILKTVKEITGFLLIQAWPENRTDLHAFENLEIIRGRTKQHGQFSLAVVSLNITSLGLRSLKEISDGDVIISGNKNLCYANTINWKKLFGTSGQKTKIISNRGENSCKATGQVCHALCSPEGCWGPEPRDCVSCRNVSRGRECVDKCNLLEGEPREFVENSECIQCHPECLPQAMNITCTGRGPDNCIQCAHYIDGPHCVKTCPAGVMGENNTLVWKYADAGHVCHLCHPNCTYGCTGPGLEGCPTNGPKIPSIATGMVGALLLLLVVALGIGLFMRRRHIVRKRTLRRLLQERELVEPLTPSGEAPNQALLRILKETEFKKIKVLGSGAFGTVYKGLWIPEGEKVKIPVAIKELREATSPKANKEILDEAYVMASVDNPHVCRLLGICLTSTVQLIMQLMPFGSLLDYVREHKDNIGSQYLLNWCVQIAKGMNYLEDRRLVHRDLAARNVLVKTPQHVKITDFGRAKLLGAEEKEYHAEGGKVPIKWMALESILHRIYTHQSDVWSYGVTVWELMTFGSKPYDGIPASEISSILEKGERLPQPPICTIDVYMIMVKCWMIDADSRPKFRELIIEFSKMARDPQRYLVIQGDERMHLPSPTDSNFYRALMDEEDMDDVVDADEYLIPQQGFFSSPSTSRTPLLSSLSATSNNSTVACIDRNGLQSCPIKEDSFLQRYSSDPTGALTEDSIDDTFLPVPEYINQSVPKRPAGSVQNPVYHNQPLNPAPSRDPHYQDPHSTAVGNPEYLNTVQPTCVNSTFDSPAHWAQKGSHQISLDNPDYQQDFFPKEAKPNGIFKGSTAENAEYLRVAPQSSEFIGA

In the case of `CCc1ncc2c(P(C)(C)=O)c(Nc3nc(Nc4cc(CC)c(N5CCC(N6CCN(C(=O)[C@@H]7CCN(c8cc(F)c([C@H]9CCC(=O)NC9=O)c(F)c8)C7)CC6)CC5)cc4OC)ncc3Br)ccc2n1` [Example 549, (R)-3-(4-((R)-3-(4-(1-(4-((5-bromo-4-((5-(dimethylphosphoryl)-2-ethylquinazolin-6-yl)amino)pyrimidin-2-yl)amino)-2-ethyl-5-methoxyphenyl)piperidin-4-yl)piperazine-1-carbonyl)pyrrolidin-1-yl)-2,6-difluorophenyl)piperidine-2,6-dione], the DC50 amounted to 3.1 nM in assay [1], 0.601 nM in assay [2], 2.96 nM in assay [3] and 1.59 nM in assay [4]. Also, in assay [2], the “Dmax (%) H1975 # 28 DTC” value was determined as 88.85%. The “H1975 #23 DC Dmax (%)” value in assay [3] is recorded as 63.66%.

Turning to `CCOc1cc(N2CCC(N3CCN(CC4CN(c5cc(F)c([C@H]6CCC(=O)NC6=O)c(F)c5)C4)CC3)CC2)c(CC)cc1Nc1ncc(Br)c(Nc2ccc3c(=O)n(CC)ncc3c2P(C)(C)=O)n1` [Example 551, (R)-3-(4-(3-((4-(1-(4-((5-bromo-4-((5-(dimethylphosphoryl)-2-ethyl-1-oxo-1,2-dihydrophthalazin-6-yl)amino)pyrimidin-2-yl)amino)-5-ethoxy-2-ethylphenyl)piperidin-4-yl)piperazin-1-yl)methyl)azetidin-1-yl)-2,6-difluorophenyl)piperidine-2,6-dione], the DC50 was 6.19 nM in assay [1], 1.62 nM in assay [2], 5.64 nM in assay [3] and 46.5 nM in assay [4]. Besides, the “Dmax (%) H1975 # 28 DTC” value in assay [2] worked out at 90.57%. In addition, the “H1975 #23 DC Dmax (%)” value in assay [3] is 84.14%.

On to `CCOc1cc(N2CCC(N3CCN(CCc4cc5oc(=O)n(C6CCC(=O)NC6=O)c5cc4C)CC3)CC2)c(CC)cc1Nc1ncc(Br)c(Nc2cc(F)c3nc(CC)ccc3c2P(C)(C)=O)n1` (stereo not shown) [Example 553, 3-(6-(2-(4-(1-(4-((5-bromo-4-((5-(dimethylphosphoryl)-2-ethyl-8-fluoroquinolin-6-yl)amino)pyrimidin-2-yl)amino)-5-ethoxy-2-ethylphenyl)piperidin-4-yl)piperazin-1-yl)ethyl)-5-methyl-2-oxobenzo[d]oxazol-3(2H)-yl)piperidine-2,6-dione], for which, in assay [1], the DC50 was 2.49 nM and the Dmax was found to be 90.7%. Also, in assay [2], the DC50 is 0.712 nM and the “Dmax (%) H1975 # 28 DTC” value was determined as 61.54%. For the same compound, in assay [3], the “H1975 #23 DC Dmax (%)” value was 53.56% and the DC50 came out at 0.828 nM. For the same compound, in assay [4], the Dmax is 93.3% and the DC50 worked out at 1.23 nM.

For the compound `CCOc1cc(N2CCC(N3CCN(CCc4c(F)ccc5c4n(CC)c(=O)n5C4CCC(=O)NC4=O)CC3)CC2)c(CC)cc1Nc1ncc(Br)c(Nc2ccc3c(=O)n(CC)ncc3c2P(C)(C)=O)n1` (stereo not shown) [Example 559, 3-(4-(2-(4-(1-(4-((5-bromo-4-((5-(dimethylphosphoryl)-2-ethyl-1-oxo-1,2-dihydrophthalazin-6-yl)amino)pyrimidin-2-yl)amino)-5-ethoxy-2-ethylphenyl)piperidin-4-yl)piperazin-1-yl)ethyl)-3-ethyl-5-fluoro-2-oxo-2,3-dihydro-1H-benzo[d]imidazol-1-yl)piperidine-2,6-dione], the 50% degradation concentration (DC50) in assay [1] is 12 nM; in assay [2] it was 0.364 nM; in assay [3], 5.38 nM; in assay [4], 26.9 nM. The “Dmax (%) H1975 # 28 DTC” value in assay [2] is on record as 80.93%. Also, the “H1975 #23 DC Dmax (%)” value in assay [3] turned out to be 73.67%.

`CCOc1cc(N2CCC(N3CCN(CCc4cccc5c4C4(CC4)C(=O)N5C4CCC(=O)NC4=O)CC3)CC2)c(CC)cc1Nc1ncc(Br)c(Nc2ccc3nc(CC)ccc3c2P(C)(C)=O)n1` (stereo not shown) [Example 571, 3-(4′-(2-(4-(1-(4-((5-bromo-4-((5-(dimethylphosphoryl)-2-ethylquinolin-6-yl)amino)pyrimidin-2-yl)amino)-5-ethoxy-2-ethylphenyl)piperidin-4-yl)piperazin-1-yl)ethyl)-2′-oxospiro[cyclopropane-1,3′-indolin]-1′-yl)piperidine-2,6-dione]: the DC50 in assay [1] came out at 3.49 nM; in assay [2], 0.946 nM; in assay [3], 3.05 nM; in assay [4] it was 13.2 nM. Also, in assay [2], the “Dmax (%) H1975 # 28 DTC” value was found to be 77.08%. Further, in assay [3], the “H1975 #23 DC Dmax (%)” value was 75.83%.

Take `CCOc1cc(N2CCC(N3CCN(CCc4cccc5c4C(C)(C)C(=O)N5C4CCC(=O)NC4=O)CC3)CC2)c(CC)cc1Nc1ncc(Br)c(Nc2ccc3nc(CC)ccc3c2P(C)(C)=O)n1` (stereo not shown) [Example 572, 3-(4-(2-(4-(1-(4-((5-bromo-4-((5-(dimethylphosphoryl)-2-ethylquinolin-6-yl)amino)pyrimidin-2-yl)amino)-5-ethoxy-2-ethylphenyl)piperidin-4-yl)piperazin-1-yl)ethyl)-3,3-dimethyl-2-oxoindolin-1-yl)piperidine-2,6-dione]: the DC50 in assay [1] was found to be 3.21 nM; in assay [2], 1.81 nM; in assay [3], 4.74 nM; in assay [4] it was 3.8 nM. The “Dmax (%) H1975 # 28 DTC” value in assay [2] is reported as 83.86%. Moreover, the “H1975 #23 DC Dmax (%)” value in assay [3] is 69.16%.

In the case of `CCc1cc(Nc2ncc(Br)c(Nc3ccc4nc(C)c(F)cc4c3P(C)(C)=O)n2)c(OC)cc1N1CCC(N2CCN(C(=O)[C@H]3CN(c4cc(F)c([C@H]5CCC(=O)NC5=O)c(F)c4)CC3(C)C)CC2)CC1` [Example 576, (R)-3-(4-((R)-4-(4-(1-(4-((5-bromo-4-((5-(dimethylphosphoryl)-3-fluoro-2-methylquinolin-6-yl)amino)pyrimidin-2-yl)amino)-2-ethyl-5-methoxyphenyl)piperidin-4-yl)piperazine-1-carbonyl)-3,3-dimethylpyrrolidin-1-yl)-2,6-difluorophenyl)piperidine-2,6-dione], the DC50 is 12.1 nM in assay [1], 2.8 nM in assay [2], 3.59 nM in assay [3] and 15.8 nM in assay [4]. Besides, in assay [2], the “Dmax (%) H1975 # 28 DTC” value amounted to 81.93%. Moreover, the “H1975 #23 DC Dmax (%)” value in assay [3] is reported as 77.19%.

`CCOc1cc(N2CCC(N3CCN(C(=O)[C@@H]4CCN(c5cc(F)c([C@H]6CCC(=O)NC6=O)c(F)c5)C4)CC3)CC2)c(CC)cc1Nc1ncc(Br)c(Nc2ccc3nc(C)c(F)cc3c2P(C)(C)=O)n1` [Example 577, (R)-3-(4-((R)-3-(4-(1-(4-((5-bromo-4-((5-(dimethylphosphoryl)-3-fluoro-2-methylquinolin-6-yl)amino)pyrimidin-2-yl)amino)-5-ethoxy-2-ethylphenyl)piperidin-4-yl)piperazine-1-carbonyl)pyrrolidin-1-yl)-2,6-difluorophenyl)piperidine-2,6-dione]: the DC50 in assay [1] came to 8.4 nM; in assay [2], 1.08 nM; in assay [3], 7.94 nM; in assay [4] it was 53.8 nM. Also, the “Dmax (%) H1975 # 28 DTC” value in assay [2] came out at 87.91%. In addition, the “H1975 #23 DC Dmax (%)” value in assay [3] was 64.13%.

Turning to `CCc1ccc2c(P(C)(C)=O)c(Nc3nc(Nc4cc(C)c(N5CCC(N6CCN(CCc7cccc8c7n(C)c(=O)n8C7CCC(=O)NC7=O)CC6)CC5)cc4OC4CC4)ncc3Br)ccc2n1` (stereo not shown) [Example 584, 3-(4-(2-(4-(1-(4-((5-bromo-4-((5-(dimethylphosphoryl)-2-ethylquinolin-6-yl)amino)pyrimidin-2-yl)amino)-5-cyclopropoxy-2-methylphenyl)piperidin-4-yl)piperazin-1-yl)ethyl)-3-methyl-2-oxo-2,3-dihydro-1H-benzo[d]imidazol-1-yl)piperidine-2,6-dione], the DC50 in assay [1] was 2.72 nM; in assay [2], 0.634 nM; in assay [3] it was 2.7 nM; in assay [4] it was 4.9 nM. Further, in assay [2], the “Dmax (%) H1975 # 28 DTC” value is 79.5%. In assay [3], the “H1975 #23 DC Dmax (%)” value came to 70.66%.

With `CCc1cc(Nc2ncc(Br)c(Nc3ccc4nc(NC(=O)C5CC5)ccc4c3P(C)(C)=O)n2)c(OC)cc1N1CCC(N2CCN(C(=O)[C@@H]3CCN(c4cc(F)c([C@H]5CCC(=O)NC5=O)c(F)c4)C3)CC2)CC1` [Example 587, N-(6-((5-bromo-2-((4-(4-(4-((R)-1-(4-((R)-2,6-dioxopiperidin-3-yl)-3,5-difluorophenyl)pyrrolidine-3-carbonyl)piperazin-1-yl)piperidin-1-yl)-5-ethyl-2-methoxyphenyl)amino)pyrimidin-4-yl)amino)-5-(dimethylphosphoryl)quinolin-2-yl)cyclopropanecarboxamide], the DC50 stood at 2.19 nM in assay [1], 0.765 nM in assay [2], 6.14 nM in assay [3] and 14.6 nM in assay [4]. In addition, the Dmax in assay [1] was 89.2%; in assay [4] it was 87.8%. Also, in assay [2], the “Dmax (%) H1975 # 28 DTC” value is on record as 87.02%. In addition, in assay [3], the “H1975 #23 DC Dmax (%)” value amounted to 87.43%.
